Assay results published in publication PMC10991509, “A phase I study of ATR inhibitor gartisertib (M4344) as a single agent and in combination with carboplatin in patients with advanced solid tumours” (British Journal of Cancer, 2024).

Legend:
[1] = system: patients with advanced solid tumours; test: Phase I safety and tolerability (TEAEs, DLTs, MTD/RP2D); type: in vivo
Excerpt: This phase I, multicenter, multicohort, open-label, first-in-human study (NCT02278250) assessed the safety, tolerability, pharmacokinetics (PK) and antitumour activity of orally administered gartisertib alone or in combination with intravenous carboplatin in patients with advanced solid tumours for whom no standard therapy was available.
The primary objectives of cohorts A and A2 were to evaluate safety and tolerability and determine the maximum tolerated dose (MTD) and/or recommended phase II dose (RP2D) of escalating doses of gartisertib monotherapy. In cohort B1, the primary objective was to determine the safety and tolerability as well as the MTD and/or RP2D of escalating doses of gartisertib in combination with carboplatin. The primary endpoints for these three study cohorts were safety parameters (AEs, clinical laboratory values, vital signs, and electrocardiogram [ECG] assessment) as well as the MTD and/or RP2D. The Supplementary Materials provide further details regarding the safety analysis, including determination of MTD, as well as the definitions of dose-limiting toxicities (DLTs; Supplementary Table S1). Please note that in this study increased blood bilirubin was defined as a laboratory finding whereas hyperbilirubinemia was a clinical diagnosis based on clinical symptoms.
Gartisertib safety was determined via reporting, recording, and analysis of Baseline Medical Conditions, AEs, physical examination data including vital signs, electrocardiograms and laboratory tests. Medical history and physical examination data were collected during the study. Any potential AE was reported and comprehensively evaluated throughout the study. AE severity was assessed according to the National Cancer Institute – Common Terminology Criteria for Adverse Events (NCI–CTCAE) version 4.0 (cohorts A and B1) or 5.0 (cohorts A2 and C). Any clinical AE with a grade of 4 or 5 was considered to be a serious AE (SAE). A laboratory AE of grade 4 was considered serious if it met certain SAE criteria. […] Important medical events that may not result in death, be life-threatening, or require hospitalization were considered to be SAEs when, based upon appropriate medical judgment, they may jeopardize the patient or may require medical or surgical intervention to prevent one of the outcomes listed above.
Patients were monitored throughout treatment cycles for DLTs. DLTs were defined using the NCI CTCAE (cohorts A and B1: version 4.0; cohort A2: version 5.0) and were defined as being related or possibly related to treatment.
Cohorts A, A2, and B1: With respect to determination of the MTD, the next dose level to be investigated was decided at a Dose Escalation Meeting and was based on the available safety data from the previous cohort. The MTD of gartisertib was primarily determined by DLTs that occurred up to and including the end of the DLT period. Please see Table S1 for definitions of DLTs. In cohorts A and B1, the gartisertib MTD was determined according to the NCI-CTCAE version 4.0 and in cohorts A2 and […], the gartisertib MTD was defined according to the NCI-CTCAE version 5.0. If ≥2 out of up to six participants at the same dose level have a DLT, the gartisertib MTD was determined as the dose level below or at an intermediate dose level. The exact dose was determined following a discussion regarding all the relevant toxicity, including DLTs that occur in prior cohorts beyond the end of the DLT period. An RP2D was determined for each applicable cohort of the study; however, it may not be higher than the MTD.

[2] = system: variant allele frequency of somatic alterations in ctDNA; test: Molecular response: variant allele frequency in ctDNA; type: in vivo, human; details: for patients with reduced variant allele frequency of the selected biomarkers: cohort C, 250 mg QD
Excerpt: Exploratory objectives were to assess ATR inhibition and DNA damage by measuring phosphorylation of the Ser-139 residue of the histone variant H2AX (ɣ-H2AX) post-treatment in peripheral blood mononuclear cells (cohorts A2 and C), describe the mutational landscape and its relationship to BOR in patients with selected biomarkers (cohort C) and to determine changes in allele frequencies in mutations of interest and their association with clinical benefit (molecular response; cohorts A2 and C). Further details on the definitions of LOF mutations and methods of biomarker collection are described in the Supplementary Materials.
Use of ATRX/DAXX mutations as proxies for ALT-positive tumors enabled use of a single next-generation sequencing test for all biomarkers in this study. Loss of function mutations were defined as loss of the gene locus, a mutation defined as pathogenic in the ClinVar database or a mutation in one of the following categories: splice_acceptor_variant, splice_donor_variant, stop_gained, frameshift_variant, stop_lost or start_lost. Archival formalin-fixed paraffin-embedded tumor biopsies and serial blood samples collected in two 10 mL Streck tubes (Streck) were analyzed for the presence of genetic alterations in tumor DNA and circulating tumor DNA (ctDNA) with the FoundationOne® CDx NGS assay (Foundation Medicine, Cambridge, Massachusetts, US, FoundationOne®CDx Technical Information. https://www.accessdata.fda.gov/cdrh_docs/pdf17/P170019S006C.pdf) and Guardant Health OMNI assay (Guardant, Palo Alto, CA, US. Technical Information https://www.accessdata.fda.gov/cdrh_docs/pdf20/P200010C.pdf), respectively.
Molecular responses were measured in ctDNA as best-on-treatment change in variant allele frequency of somatic alterations with baseline value ≥0.3%.

SMILES: Nc1nn2cc(F)cnc2c1C(=O)Nc1cncc(F)c1N1CCC(C(=O)N2CCN(C3COC3)CC2)CC1 [gartisertib, Gartisertib]
- TEAE Constipation, Grade 3/4 ([1]; human, in vivo): 0 (0.0) n (%)
- TEAE Decreased appetite, Grade 3/4 ([1]; human, in vivo): 0 (0.0) n (%)
- TEAE Diarrhoea, Grade 3/4 ([1]; human, in vivo): 0 (0.0) n (%)
- TEAE Disease progression, Grade 3/4 ([1]; human, in vivo): 0 (0.0) n (%)
- TEAE Disease progression, any grade ([1]; human, in vivo): 0 (0.0) n (%)
- TEAE Dyspnoea, Grade 3/4 ([1]; human, in vivo): 0 (0.0) n (%)
- TEAE Headache, Grade 3/4 ([1]; human, in vivo): 0 (0.0) n (%)
- TEAE Hypokalaemia, Grade 3/4 ([1]; human, in vivo): 0 (0.0) n (%)
- TEAE Hypokalaemia, any grade ([1]; human, in vivo): 0 (0.0) n (%)
- TEAE Hypomagnesaemia, Grade 3/4 ([1]; human, in vivo): 0 (0.0) n (%)
- TEAE Hypomagnesaemia, any grade ([1]; human, in vivo): 0 (0.0) n (%)
- TEAE Jaundice, Grade 3/4 ([1]; human, in vivo): 0 (0.0) n (%)
- TEAE Jaundice, any grade ([1]; human, in vivo): 0 (0.0) n (%)
- TEAE Neutropenia, Grade 3/4 ([1]; human, in vivo): 0 (0.0) n (%)
- TEAE Peripheral oedema, Grade 3/4 ([1]; human, in vivo): 0 (0.0) n (%)
- TEAE Peripheral oedema, any grade ([1]; human, in vivo): 0 (0.0) n (%)
- TEAE Thrombocytopenia, Grade 3/4 ([1]; human, in vivo): 0 (0.0) n (%)
- TEAE Thrombocytopenia, any grade ([1]; human, in vivo): 0 (0.0) n (%)
- TEAE anaemia ([1]; human, in vivo): 61.5%
- TEAE fatigue ([1]; human, in vivo): 47.6%
- TEAE increased blood bilirubin ([1]; human, in vivo): 61.5%
- TEAE nausea ([1]; human, in vivo): 66.7%
- abdominal pain leading to gartisertib discontinuation ([1]; human, in vivo): 7.7%
- hepatic failure leading to gartisertib discontinuation ([1]; human, in vivo): 7.7%
- increased ALT leading to gartisertib discontinuation ([1]; human, in vivo): 7.7%
- increased blood bilirubin leading to gartisertib discontinuation ([1]; human, in vivo): 11.9%
- nausea leading to gartisertib discontinuation ([1]; human, in vivo): 7.1%
- patients experiencing a gartisertib-related TEAE ([1]; human, in vivo): ≥ 92.3%
- patients who experienced at least one serious TEAE ([1]; human, in vivo): ≥ 50%
- patients with grade 3 or 4 changes in laboratory parameters ([1]; human, in vivo): ≤ 20%
- recommended phase II dose (RP2D) ([1]; human, in vivo): 250 mg QD
- serious TEAE related to gartisertib ([1]; human, in vivo): 19.0-37.5%
- DLTs at QD doses subsequently investigated ([1]; in vivo): no additional DLTs observed
- changes in ECG parameters ([1]; in vivo): no clinically relevant changes
- changes in vital signs ([1]; in vivo): no clinically relevant changes
- gartisertib dose reduction due to a treatment-related TEAE ([1]; in vivo): eight
- patients with ≥1 DLT ([1]; in vivo): five
- tolerability of gartisertib 1200 mg twice weekly ([1]; in vivo): not tolerated
- deaths considered related to gartisertib or carboplatin ([1]; six deaths reported across all cohorts): none
- patients with TP53-reduced variant allele frequency ([2]; cohort A2, 100 mg BID): 0/2
- patients with TP53-reduced variant allele frequency ([2]; cohort A2, 150 mg QD): 1/2
- patients with TP53-reduced variant allele frequency ([2]; cohort A2, 250 mg QD (RP2D)): all six
- patients with TP53-reduced variant allele frequency ([2]; cohort A2, 350 mg QD): 0/4
- patients with TP53-reduced variant allele frequency ([2]; cohort A2, patients achieving SD as best response): 4/5
- patients with TP53-reduced variant allele frequency ([2]; cohort A2, patients with PD): 2/6
- patients with reduced variant allele frequency of the selected biomarkers ([2]; SD as best response): all four
- patients with reduced variant allele frequency of the selected biomarkers ([2]; patients with PD): 2/5
